Data taken from ChEMBL document CHEMBL1201862, “PubChem BioAssay data set” (2004).
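Assay format: 96-well plates, 48-hour exposure. The concentration for 50% growth inhibition is given as GI50.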 The source made the active and inactive calls. Cut-off read from the data, not from the text of the source: active = GI50 up to about 1.1 µM and inactive = higher.

How the values were obtained:
Assay in all cases: DTP human tumour cell line panel, 48 h
NCI-H522 = tested on: NCI-H522
OVCAR-5 = tested on: OVCAR-5
A498 = tested on: A498
MOLT-4 = tested on: MOLT-4
DU-145 = tested on: DU-145
KM12 = tested on: KM12
SK-MEL-28 = tested on: SK-MEL-28
Malme-3M = tested on: Malme-3M
K562 = tested on: K562
SK-MEL-2 = tested on: SK-MEL-2
SK-MEL-5 = tested on: SK-MEL-5
PC-3 = tested on: PC-3
RPMI-8226 = tested on: RPMI-8226
OVCAR-8 = tested on: OVCAR-8
MDA-MB-435 = tested on: MDA-MB-435
UACC-62 = tested on: UACC-62
OVCAR-4 = tested on: OVCAR-4
SR = tested on: SR
NCI/ADR-RES = tested on: NCI/ADR-RES
A549 = tested on: A549
786-0 = tested on: 786-0
COLO 205 = tested on: COLO 205
SF-268 = tested on: SF-268
HCC 2998 = tested on: HCC 2998
OVCAR-3 = tested on: OVCAR-3
MDA-N = tested on: MDA-N
Hs-578T = tested on: Hs-578T
NCI-H226 = tested on: NCI-H226
NCI-H460 = tested on: NCI-H460
CAKI-1 = tested on: CAKI-1
ACHN = tested on: ACHN
MDA-MB-231 = tested on: MDA-MB-231
HOP-92 = tested on: HOP-92
RXF 393 = tested on: RXF 393
HOP-62 = tested on: HOP-62
UO-31 = tested on: UO-31
BT-549 = tested on: BT-549
HL-60 = tested on: HL-60
M14 = tested on: M14
SF-295 = tested on: SF-295
SNB-75 = tested on: SNB-75
HCT-15 = tested on: HCT-15
SW-620 = tested on: SW-620
SNB-19 = tested on: SNB-19
HT-29 = tested on: HT-29
SK-OV-3 = tested on: SK-OV-3
TK-10 = tested on: TK-10
HCT-116 = tested on: HCT-116
U-251 = tested on: U-251
IGROV-1 = tested on: IGROV-1
CCRF-CEM = tested on: CCRF-CEM
NCI-H23 = tested on: NCI-H23
UACC-257 = tested on: UACC-257
LOX IMVI = tested on: LOX IMVI
EKVX = tested on: EKVX
MCF7 = tested on: MCF7
SF-539 = tested on: SF-539
SN12C = tested on: SN12C

## CCN1CC2=C(OC(N)=C(C#N)C2c2ccc(Cl)cc2)/C(=C/c2ccc(Cl)cc2)C1 (stereo unspecified)
NCI-H522
  GI50: 25.1 µM (inactive)
OVCAR-5
  GI50: 20.1 µM (inactive)
A498
  GI50: 16.5 µM (inactive)
MOLT-4
  GI50: 3.19 µM (inactive)
DU-145
  GI50: 42.4 µM (inactive)
KM12
  GI50: 33.2 µM (inactive)
SK-MEL-28
  GI50: 14.9 µM (inactive)
Malme-3M
  GI50: 18.9 µM (inactive)
K562
  GI50: 8.81 µM (inactive)
SK-MEL-2
  GI50: 27.6 µM (inactive)
SK-MEL-5
  GI50: 13.1 µM (inactive)
PC-3
  GI50: 18.2 µM (inactive)
RPMI-8226
  GI50: 18 µM (inactive)
OVCAR-8
  GI50: 16.6 µM (inactive)
MDA-MB-435
  GI50: 43.3 µM (inactive)
UACC-62
  GI50: 26.9 µM (inactive)
OVCAR-4
  GI50: 32.4 µM (inactive)
SR
  GI50: 31.9 µM (inactive)
NCI/ADR-RES
  GI50: 27.3 µM (inactive)
A549
  GI50: 14.2 µM (inactive)
786-0
  GI50: 12.1 µM (inactive)
COLO 205
  GI50: 52.4 µM (inactive)
SF-268
  GI50: 17.8 µM (inactive)
HCC 2998
  GI50: 26.7 µM (inactive)
OVCAR-3
  GI50: 21.8 µM (inactive)
MDA-N
  GI50: 35 µM (inactive)
Hs-578T
  GI50: 22.6 µM (inactive)
NCI-H226
  GI50: 31 µM (inactive)
NCI-H460
  GI50: 14 µM (inactive)
CAKI-1
  GI50: 10.2 µM (inactive)
ACHN
  GI50: 15.7 µM (inactive)
MDA-MB-231
  GI50: 16.1 µM (inactive)
HOP-92
  GI50: 0.527 µM (active)
RXF 393
  GI50: 12.3 µM (inactive)
HOP-62
  GI50: 18.2 µM (inactive)
UO-31
  GI50: 36.4 µM (inactive)
BT-549
  GI50: 70.8 µM (inactive)
HL-60
  GI50: > 100 µM (inactive)
M14
  GI50: 21.5 µM (inactive)
SF-295
  GI50: 30.1 µM (inactive)
SNB-75
  GI50: 12.5 µM (inactive)
HCT-15
  GI50: 45.8 µM
SW-620
  GI50: 44.1 µM (inactive)
SNB-19
  GI50: 15 µM (inactive)
HT-29
  GI50: 38.7 µM (inactive)
SK-OV-3
  GI50: 18.7 µM (inactive)
TK-10
  GI50: 21 µM (inactive)
HCT-116
  GI50: 14.1 µM (inactive)
U-251
  GI50: 16.4 µM (inactive)
IGROV-1
  GI50: 20.8 µM (inactive)
CCRF-CEM
  GI50: 18.3 µM (inactive)
NCI-H23
  GI50: 22.5 µM (inactive)
UACC-257
  GI50: 28.1 µM (inactive)
LOX IMVI
  GI50: 26.8 µM (inactive)
EKVX
  GI50: 39.5 µM (inactive)
MCF7
  GI50: 30.5 µM (inactive)

## Cc1cc(/N=C/c2c(CO)cnc(C)c2O)c(/N=C/c2c(CO)cnc(C)c2O)cc1C.[Zn+2]
NCI-H522
  GI50: > 100 µM (inactive)
A498
  GI50: > 100 µM (inactive)
MOLT-4
  GI50: > 100 µM (inactive)
KM12
  GI50: > 100 µM (inactive)
SK-MEL-2
  GI50: > 100 µM (inactive)
SK-MEL-5
  GI50: > 100 µM (inactive)
OVCAR-8
  GI50: > 100 µM (inactive)
UACC-62
  GI50: > 100 µM (inactive)
OVCAR-4
  GI50: > 100 µM (inactive)
NCI/ADR-RES
  GI50: > 100 µM (inactive)
A549
  GI50: > 100 µM (inactive)
786-0
  GI50: > 100 µM (inactive)
COLO 205
  GI50: > 100 µM (inactive)
HCC 2998
  GI50: > 100 µM (inactive)
MDA-N
  GI50: > 100 µM (inactive)
Hs-578T
  GI50: > 100 µM (inactive)
NCI-H226
  GI50: > 100 µM (inactive)
SF-539
  GI50: > 100 µM (inactive)
NCI-H460
  GI50: > 100 µM (inactive)
CAKI-1
  GI50: > 100 µM (inactive)
ACHN
  GI50: > 100 µM (inactive)
MDA-MB-231
  GI50: > 100 µM (inactive)
HOP-92
  GI50: > 100 µM (inactive)
HOP-62
  GI50: > 100 µM (inactive)
UO-31
  GI50: > 100 µM (inactive)
BT-549
  GI50: > 100 µM (inactive)
M14
  GI50: > 100 µM (inactive)
SF-295
  GI50: > 100 µM (inactive)
SNB-75
  GI50: > 100 µM (inactive)
SNB-19
  GI50: > 100 µM (inactive)
HT-29
  GI50: > 100 µM (inactive)
TK-10
  GI50: > 100 µM (inactive)
HCT-116
  GI50: > 100 µM (inactive)
IGROV-1
  GI50: > 100 µM (inactive)
LOX IMVI
  GI50: > 100 µM (inactive)

## Clc1cccc(/C=c2\nc(-c3ccccc3)n3c2nc2ccccc23)c1
OVCAR-5
  GI50: > 100 µM (inactive)
A498
  GI50: > 100 µM (inactive)
MOLT-4
  GI50: > 100 µM (inactive)
DU-145
  GI50: > 100 µM (inactive)
KM12
  GI50: > 100 µM (inactive)
SK-MEL-28
  GI50: > 100 µM (inactive)
Malme-3M
  GI50: > 100 µM (inactive)
K562
  GI50: > 100 µM (inactive)
SK-MEL-2
  GI50: > 100 µM (inactive)
SK-MEL-5
  GI50: > 100 µM (inactive)
PC-3
  GI50: > 100 µM (inactive)
RPMI-8226
  GI50: > 100 µM (inactive)
OVCAR-8
  GI50: > 100 µM (inactive)
MDA-MB-435
  GI50: > 100 µM (inactive)
SN12C
  GI50: > 100 µM (inactive)
UACC-62
  GI50: 21.5 µM (inactive)
OVCAR-4
  GI50: > 100 µM (inactive)
SR
  GI50: > 100 µM (inactive)
NCI/ADR-RES
  GI50: > 100 µM (inactive)
A549
  GI50: > 100 µM (inactive)
786-0
  GI50: > 100 µM (inactive)
COLO 205
  GI50: > 100 µM (inactive)
SF-268
  GI50: 40.8 µM (inactive)
OVCAR-3
  GI50: > 100 µM (inactive)
MDA-N
  GI50: > 100 µM (inactive)
Hs-578T
  GI50: 98.6 µM (inactive)
NCI-H226
  GI50: > 100 µM (inactive)
SF-539
  GI50: 34.4 µM (inactive)
NCI-H460
  GI50: > 100 µM (inactive)
CAKI-1
  GI50: > 100 µM (inactive)
MDA-MB-231
  GI50: 42.7 µM (inactive)
HOP-92
  GI50: 4.38 µM (inactive)
RXF 393
  GI50: 31.9 µM (inactive)
HOP-62
  GI50: 71.3 µM (inactive)
UO-31
  GI50: > 100 µM (inactive)
BT-549
  GI50: 88.3 µM (inactive)
HL-60
  GI50: > 100 µM (inactive)
M14
  GI50: > 100 µM (inactive)
SF-295
  GI50: 73.3 µM (inactive)
SNB-75
  GI50: 20 µM (inactive)
HCT-15
  GI50: > 100 µM
SW-620
  GI50: > 100 µM (inactive)
SNB-19
  GI50: > 100 µM (inactive)
HT-29
  GI50: > 100 µM (inactive)
SK-OV-3
  GI50: 57.5 µM (inactive)
TK-10
  GI50: 87.1 µM (inactive)
HCT-116
  GI50: > 100 µM (inactive)
U-251
  GI50: 60.4 µM (inactive)
IGROV-1
  GI50: > 100 µM (inactive)
CCRF-CEM
  GI50: > 100 µM (inactive)
NCI-H23
  GI50: 72.8 µM (inactive)
UACC-257
  GI50: > 100 µM (inactive)
LOX IMVI
  GI50: > 100 µM (inactive)
EKVX
  GI50: 28.5 µM (inactive)
MCF7
  GI50: > 100 µM (inactive)
